From patent US9718792B2, “Isoxazoline hydroxamic acid derivatives as LpxC inhibitors” (priority 2014, dated 2017)
Values after ≈ are worked out from the molar mass of the structure shown. Where two headings read alike, the source gives them in different places.

Assays:
P. aeruginosa PAO1 = assay: Susceptibility Testing (MIC, broth microdilution); assay type: cell-based, Pseudomonas aeruginosa; details: for MIC: Pseudomonas aeruginosa, PAO1, 20 h, read-out: PAO1 MIC
Procedure, shortened: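 Broth microdilution per CLSI in cation-adjusted Mueller-Hinton broth, inoculum ~5×10^5 CFU/mL, two-fold compound dilutions (1% DMSO final). Plates incubated 20 h in ambient air at 35° C. MIC is the lowest concentration preventing visible growth, confirmed by OD 600 nm reading.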

P. aeruginosa LpxC = P. aeruginosa LpxC (Pseudomonas aeruginosa (strain ATCC 15692 / DSM 22644 / CIP 104116 / JCM 14847 / LMG 12228 / 1C / PRS 101 / PAO1), UniProt P47205); assay: P. aeruginosa LpxC Inhibition Assay; assay type: biochemical; details: 2 μM substrate, LC-MS/MS
Procedure, shortened: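 Compounds pre-incubated 30 min at room temperature with 1 nM LpxC, then 2 μM UDP-3-O-(R-3-hydroxydecanoyl)-GlcNAc added; 20 min reaction in 50 mM sodium phosphate pH 7.5, 0.005% Triton X-100, quenched with HOAc. Product quantified by LC-MS/MS against calibration curve; IC50 from four-parameter logistic fit.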

[1] = P. aeruginosa PAO1, broth microdilution, 20 hours
[2] = 1 nM P. aeruginosa LpxC, read-out: PA LpxC IC50

Row | Structure (SMILES) | MIC (P. aeruginosa PAO1; [1]) [µg/mL] | IC50 (P. aeruginosa LpxC; [2]) [nM] | PAO1 MIC (P. aeruginosa PAO1; [1]) [µg/mL] | IC50 (P. aeruginosa LpxC; PA LpxC IC50, 1 nM P. aeruginosa LpxC) [nM] | MIC (P. aeruginosa PAO1) [µg/mL]
1 | CC(CC1CC(c2ccc(C#CC3CC3)c(F)c2)=NO1)(C(=O)NO)S(C)(=O)=O (single isomer, unassigned) [Compound 13-B, 3-(3-(4-(cyclopropylethynyl)-3-fluorophenyl)-4,5-dihydroisoxazol-5-yl)-N-hydroxy-2-methyl-2-(methylsulfonyl)propanamide] | 1 (≈ 2.45 µM) | 1 |  |  | 
2 | C[C@@](C[C@H]1CC(c2ccc(-c3ccc(CN4CCOCC4)cc3)cc2)=NO1)(C(=O)NO)S(C)(=O)=O [Compound 47, (R)—N-hydroxy-2-methyl-2-(methylsulfonyl)-3-((R)-3-(4′-(morpholinomethyl)-[1,1′-biphenyl]-4-yl)-4,5-dihydroisoxazol-5-yl)] | 0.35 (≈ 0.698 µM) | 0.6 |  |  | 
3 | CC#Cc1ccc(C2=NOC(CC(C)(C(=O)NO)S(C)(=O)=O)C2)c(F)c1 (single isomer, unassigned) [Compound 16-B, 3-(3-(2-fluoro-4-(prop-1-yn-1-yl)phenyl)-4,5-dihydroisoxazol-5-yl)-N-hydroxy-2-methyl-2-(methylsulfonyl)propanamide] | 1 (≈ 2.61 µM) | 0.6 |  |  | 
4 | COCC1CC(C#Cc2ccc(C3=NO[C@@H](C[C@](C)(C(=O)NO)S(C)(=O)=O)C3)cc2)C1 (stereo partly drawn) [Compound 52, (R)—N-hydroxy-3-((R)-3-(4-((3-(methoxymethyl)cyclobutyl)ethynyl)phenyl)-4,5-dihydroisoxazol-5-yl)-2-methyl-2-(methylsulfonyl)propanamide] | 1 (≈ 2.23 µM) | 0.8 |  |  | 
5 | C[C@@](C[C@H]1CC(c2ccc(C#CC3CC(CC#N)C3)cc2)=NO1)(C(=O)NO)S(C)(=O)=O (stereo partly drawn) [Compound 55, (R)-3-((R)-3-(4-((3-(cyanomethyl)cyclobutyl)ethynyl)phenyl)-4,5-dihydroisoxazol-5-yl)-N-hydroxy-2-methyl-2-(methylsulfonyl)propanamide] | 0.5 (≈ 1.13 µM) | < 0.5 |  |  | 
6 | CC#Cc1ccc(C2=NOC(CC(C)(C(=O)NO)S(C)(=O)=O)C2)cc1F (single isomer, unassigned) [Compound 12-B, 3-(3-(3-fluoro-4-(prop-1-yn-1-yl)phenyl)-4,5-dihydroisoxazol-5-yl)-N-hydroxy-2-methyl-2-(methylsulfonyl)propanamide] | 2 (≈ 5.23 µM) | 2 |  |  | 
7 | Cn1cc(-c2ccc(C3=NO[C@@H](C[C@](C)(C(=O)NO)S(C)(=O)=O)C3)cc2)ccc1=O [Compound 68, (R)—N-hydroxy-2-methyl-3-((R)-3-(4-(1-methyl-6-oxo-1,6-dihydropyridin-3-yl)phenyl)-4,5-dihydroisoxazol-5-yl)-2-(methylsulfonyl)propanamide] | 16 (≈ 36.9 µM) |  |  | 2 | 
8 | C[C@@](C[C@H]1CC(c2ccc(CCCCF)cc2)=NO1)(C(=O)NO)S(C)(=O)=O [Compound 34, (R)-3-((R)-3-(4-(4-fluorobutyl)phenyl)-4,5-dihydroisoxazol-5-yl)-N-hydroxy-2-methyl-2-(methylsulfonyl) propanamide] | 0.5 (≈ 1.25 µM) | 2 |  |  | 
9 | C[C@@](C[C@H]1CC(c2ccc(CCCF)cc2)=NO1)(C(=O)NO)S(C)(=O)=O [Compound 33, (R)-3-((R)-3-(4-(3-fluoropropyl)phenyl)-4,5-dihydroisoxazol-5-yl)-N-hydroxy-2-methyl-2-(methylsulfonyl) propanamide] |  | 2 |  |  | 0.5 (≈ 1.29 µM)
10 | COCC1CC(C#Cc2ccc(C3=NO[C@@H](C[C@](C)(C(=O)NO)S(C)(=O)=O)C3)cc2)C1 (stereo partly drawn) [Compound 53, (R)—N-hydroxy-3-((R)-3-(4-((3-(methoxymethyl)cyclobutyl)ethynyl)phenyl)-4,5-dihydroisoxazol-5-yl)-2-methyl-2-(methylsulfonyl)propanamide] |  | 0.5 | 0.5 |  | 
11 | CC(CC1CC(c2ccc(-c3ccccc3)cc2)=NO1)(C(=O)NO)S(C)(=O)=O (single isomer, unassigned) [Compound 3-B, 3-(3-([1,1′-biphenyl]-4-yl)-4,5-dihydroisoxazol-5-yl)-N-hydroxy-2-methyl-2-(methylsulfonyl)propanamide] | 0.25 (≈ 0.621 µM) | 1 |  |  | 
12 | C[C@@](C[C@H]1CC(c2ccc(-c3ccc(OCCO)cc3)cc2)=NO1)(C(=O)NO)S(C)(=O)=O [Compound 50, (R)—N-hydroxy-3-((R)-3-(4′-(2-hydroxyethoxy)-[1,1′-biphenyl]-4-yl)-4,5-dihydroisoxazol-5-yl)-2-methyl-2-(methylsulfonyl)] | 0.18 (≈ 0.389 µM) | 0.7 |  |  | 
13 | COC(CO)c1ccc(-c2ccc(C3=NO[C@@H](C[C@](C)(C(=O)NO)S(C)(=O)=O)C3)cc2)cc1 (stereo partly drawn) [Compound 75, (2R)—N-hydroxy-3-((5R)-3-(4′-(2-hydroxy-1-methoxyethyl)-[1,1′-biphenyl]-4-yl)-4,5-dihydroisoxazol-5-yl)-2-methyl-2-(methylsulfonyl)propanamidepropanamide] | 0.5 (≈ 1.05 µM) | < 0.5 |  |  | 
14 | CCCc1ccc(C2=NO[C@@H](C[C@](C)(C(=O)NO)S(C)(=O)=O)C2)cc1 [Compound 23, (R)—N-hydroxy-2-methyl-2-(methylsulfonyl)-3-((R)-3-(4-propylphenyl)-4,5-dihydroisoxazol-5-yl)propanamide] | 0.5 (≈ 1.36 µM) | < 0.5 |  |  | 

Second part, led by results:

Row | MIC (P. aeruginosa PAO1; [1]) [µg/mL] | IC50 (P. aeruginosa LpxC; [2]) [nM] | PAO1 MIC (P. aeruginosa PAO1; [1]) [µg/mL] | Structure (SMILES) | IC50 (P. aeruginosa LpxC; PA LpxC IC50, 1 nM P. aeruginosa LpxC) [nM] | MIC (P. aeruginosa PAO1) [µg/mL]
15 | 0.35 (≈ 0.799 µM) | < 0.5 |  | C[C@@](C[C@H]1CC(c2ccc(-c3ccncc3Cl)cc2)=NO1)(C(=O)NO)S(C)(=O)=O [Compound 82, (R)-3-((R)-3-(4-(3-chloropyridin-4-yl)phenyl)-4,5-dihydroisoxazol-5-yl)-N-hydroxy-2-methyl-2-(methylsulfonyl)propanamide] |  | 
16 | 0.5 (≈ 1.34 µM) | 0.6 |  | CCc1ccc(C2=NO[C@@H](C[C@](C)(C(=O)NO)S(C)(=O)=O)C2)c(F)c1 [Compound 120, (R)-3-((R)-3-(4-ethyl-2-fluorophenyl)-4,5-dihydroisoxazol-5-yl)-N-hydroxy-2-methyl-2-(methylsulfonyl)propanamide] |  | 
17 | 1 (≈ 2.01 µM) | < 0.5 |  | C[C@@H](O)Cc1ccc(-c2ccc(C3=NO[C@@H](C[C@](C)(C(=O)NO)S(C)(=O)=O)C3)cc2F)c(F)c1 [Compound 115, (R)-3-((R)-3-(2,2′-difluoro-4′-((R)-2-hydroxypropyl)-[1,1′-biphenyl]-4-yl)-4,5-dihydroisoxazol-5-yl)-N-hydroxy-2-methyl-2-(methylsulfonyl)propanamide] |  | 
18 | 1 (≈ 2.16 µM) | < 0.5 |  | CC(C)c1cc(-c2ccc(C3=NO[C@@H](C[C@](C)(C(=O)NO)S(C)(=O)=O)C3)cc2F)ccn1 [Compound 112, (R)-3-((R)-3-(3-fluoro-4-(2-isopropylpyridin-4-yl)phenyl)-4,5-dihydroisoxazol-5-yl)-N-hydroxy-2-methyl-2-(methylsulfonyl)propanamide] |  | 
19 | 0.5 (≈ 1.05 µM) | < 0.5 |  | Cc1cc(C[C@@H](C)O)ccc1-c1ccc(C2=NO[C@@H](C[C@](C)(C(=O)NO)S(C)(=O)=O)C2)cc1 [Compound 90, (R)-3-((R)-3-(2′-methyl-4′-((R)-2-hydroxypropyl)-[1,1′-biphenyl]-4-yl)-4,5-dihydroisoxazol-5-yl)-N-hydroxy-2-methyl-2-(methylsulfonyl) propanamide] |  | 
20 | 4 (≈ 8.9 µM) | 4 |  | Cc1cc(-c2ccc(C3=NO[C@@H](C[C@](C)(C(=O)NO)S(C)(=O)=O)C3)cc2F)cc(C)n1 [Compound 118, (R)-3-((R)-3-(4-(2,6-dimethylpyridin-4-yl)-3-fluorophenyl)-4,5-dihydroisoxazol-5-yl)-N-hydroxy-2-methyl-2-(methylsulfonyl)propanamide] |  | 
21 | 0.35 (≈ 0.796 µM) | < 0.5 |  | C[C@@](C[C@H]1CC(c2ccc(-c3ccncc3F)c(F)c2)=NO1)(C(=O)NO)S(C)(=O)=O [Compound 117, (R)-3-((R)-3-(3-fluoro-4-(3-fluoropyridin-4-yl)phenyl)-4,5-dihydroisoxazol-5-yl)-N-hydroxy-2-methyl-2-(methylsulfonyl)propanamide] |  | 
22 | 0.25 (≈ 0.503 µM) | < 0.5 |  | C[C@@H](O)Cc1cc(F)c(-c2ccc(C3=NO[C@@H](C[C@](C)(C(=O)NO)S(C)(=O)=O)C3)cc2)c(F)c1 [Compound 88, (R)-3-((R)-3-(2′,6′-difluoro-4′-((R)-2-hydroxypropyl)-[1,1′-biphenyl]-4-yl)-4,5-dihydroisoxazol-5-yl)-N-hydroxy-2-methyl-2-(methylsulfonyl) propanamide] |  | 
23 | 0.18 (≈ 0.388 µM) | < 0.5 |  | C[C@@](C[C@H]1CC(c2ccc(-c3ccc(CCO)cc3)c(F)c2)=NO1)(C(=O)NO)S(C)(=O)=O [Compound 102, (R)-3-((R)-3-(2-fluoro-4′-(2-hydroxyethyl)-[1,1′-biphenyl]-4-yl)-4,5-dihydroisoxazol-5-yl)-N-hydroxy-2-methyl-2-(methylsulfonyl)] |  | 
24 | 2 (≈ 4.26 µM) | < 0.5 |  | C[C@@](C[C@H]1CC(c2ccc(-c3ccc(-n4nccn4)cc3)cc2)=NO1)(C(=O)NO)S(C)(=O)=O [Compound 77, (R)-3-((R)-3-(4′-(2H-1,2,3-triazol-2-yl)-[1,1′-biphenyl]-4-yl)-4,5-dihydroisoxazol-5-yl)-N-hydroxy-2-methyl-2-(methylsulfonyl)propanamide] |  | 
25 | 1 (≈ 2.12 µM) | < 0.5 |  | C[C@@](C[C@H]1CC(c2ccc(-c3ccncc3C(F)(F)F)cc2)=NO1)(C(=O)NO)S(C)(=O)=O [Compound 111, (R)—N-hydroxy-2-methyl-2-(methylsulfonyl)-3-((R)-3-(4-(3-(trifluoromethyl)pyridin-4-yl)phenyl)-4,5-dihydroisoxazol-5-yl)propanamide] |  | 
